In US20260274859A1, “FUSED POLYCYCLIC DERIVATIVE AND USE THEREOF” (ZHEJIANG HISUN PHARMACEUTICAL CO., LTD., priority 2023, published 2026):

Experiments:
Assay type in all cases: cell-based
[1] = system: A549 cells; test: Inhibition of proliferation of A549 cells (CCK8 or CTG); settings: Homo sapiens, maximum concentration 10 μM, 5-fold dilution
Protocol: (1) A549 cells in the logarithmic growth phase were digested with 0.25% trypsin and counted. The cells were inoculated into 96-well plates at 2000 cells per well, and the 96-well plates were placed in an incubator containing 5% CO2 at 37° C. for 12 h of culture.
(§1) (2) Six concentration gradients for the compounds to be tested (with the maximum drug concentration of 10 μM and 5-fold dilution) were set. After the cells adhered to the wall, the compounds to be tested were serially diluted with DMSO, then diluted with 1640 complete medium to reach a concentration 1000 times the final concentration, and added to the corresponding wells.
(§2) (3) After the corresponding concentrations of the compounds to be tested were added, the plates were incubated in an incubator with 5% carbon dioxide at 37° C., and then the cell viability rate at each drug concentration was determined by CCK8 or CTG method. In addition, the IC50 value was calculated.

[2] = system: HK-2 cells; test: Inhibition of proliferation of HK-2 cells (normal cells; CCK8 or CTG); settings: Homo sapiens, maximum concentration 10 μM, 5-fold dilution
Protocol: (1) HK-2 cells in the logarithmic growth phase were digested with 0.25% trypsin and counted. The cells were inoculated into 96-well plates at 2000 cells per well, and the 96-well plates were placed and cultured in an incubator containing 5% CO2 at 37° C. for 12 h.
as §1, with “for the compound to be” for “for the compounds to be”
as §2

[3] = system: HL60 cells; test: Inhibition of proliferation of HL60 tumor cells (CCK8 or CTG); settings: Homo sapiens, HL-60
Protocol: The effect of the compound of the present disclosure on the proliferation of tumor cells was determined using the following method. The HL60 cells used in the method were purchased from Nanjing Kebai Biotechnology Co., Ltd., and the kit was the Cell Counting Kit-8/CCK-8 kit of MCE Company (article number: HY—K0301, specification: 3000T).
(1) HL60 cells in logarithmic growth phase were prepared into a cell suspension. The cell suspension was added into a 96-well plate at 5000 cells/well. The 96-well cell culture plate was placed in a CO2 incubator for 4 h of incubation of suspended cells or for 12 h of incubation of adherent cells.
(2) The compounds to be tested were diluted with IMDM complete culture medium to reach a concentration twice the testing concentration, and added to the corresponding wells.
as §2

| IC50 [1] | IC50 [3] | Structure (SMILES) | IC50 [2] |
| --- | --- | --- | --- |
| 0.49 nM | – | CC(C)NC1CC(C(=O)Nc2sc3c(c2-c2nc4ccccc4s2)CCNC3)C1 (stereo not drawn) [Compound 001, N-(3-(benzo[d]thiazol-2-yl)-4,5,6,7-tetrahydrothieno[2,3-c]pyridin-2-yl)-3-(isopropylamino)cyclobutane-1-carboxamide] | 759 nM |
| 0.53 nM | < 150 nM | CC(C)NC1CC(C(=O)Nc2sc3c(c2-c2nc4ccc(-c5ccc(N6CCNCC6)nc5)cc4s2)CCNC3)C1 (stereo not drawn) [Compound 009, 3-(isopropylamino)-N-(3-(6-(6-(piperazin-1-yl)pyridin-3-yl)benzo[d]thiazol-2-yl)-4,5,6,7-tetrahydrothieno [2,3-c]pyridin-2-yl) cyclobutane-1-carboxamide] | – |
| – | < 150 nM | Cc1cn(-c2ccc3nc(-c4c(NC(=O)C5CC(NC(C)C)C5)sc5c4CCNC5)sc3c2)cn1 (stereo not drawn) [Compound 014, 3-(isopropylamino)-N-(3-(6-(4-methyl-1H-imidazol-1-yl)benzo[d]thiazol-2-yl)-4,5,6,7-tetrahydrothieno[2,3-c]pyridin-2-yl)cyclobutane-1-carboxamide] | – |
| 4.41 nM | < 150 nM | CC(C)NC1CC(C(=O)Nc2sc3c(c2-c2nc4ccc(C5=CCN(C)CC5)cc4s2)CCNC3)C1 (stereo not drawn) [Compound 017, 3-(isopropylamino)-N-(3-(6-(1-methyl-1,2,3,6-tetrahydropyridin-4-yl)benzo[d]thiazol-2-yl)-4,5,6,7-tetrahydrothieno[2,3-c]pyridin-2-yl)cyclobutane-1-carboxamide] | – |
| – | < 150 nM | CC(C)NC1CC(C(=O)Nc2sc3c(c2-c2nc4cc(C5=CCNCC5)ccc4s2)CCNC3)C1 (stereo not drawn) [Compound 022, 3-(isopropylamino)-N-(3-(5-(1,2,3,6-tetrahydropyridin-4-yl)benzo[d]thiazol-2-yl)-4,5,6,7-tetrahydrothieno [2,3-c]pyridin-2-yl) cyclobutane-1-carboxamide] | – |
| 18.3 nM | < 150 nM | CC(C)NC1CC(C(=O)Nc2sc3c(c2-c2nc4ccc(-c5ccc(C6=CCNCC6)nc5)cc4s2)CCNC3)C1 (stereo not drawn) [Compound 047, 3-(isopropylamino)-N-(3-(6-(1′,2′,3′,6′-tetrahydro-[2, 4′-bipyridin]-5-yl)benzo [d]thiazol-2-yl)-4,5,6,7-tetrahydrothieno[2,3-c]pyridin-2-yl)cyclobutane-1-carboxamide] | 1610 nM |
| 21.8 nM | – | CC(C)NC1CC(C(=O)Nc2sc3c(c2-c2nc4ccc(C5=CCNCC5)cc4s2)CCN(C2CCCC2)C3)C1 (stereo not drawn) [Compound 054, N-(6-cyclopentyl-3-(6-(1,2,3,6-tetrahydropyridin-4-yl)benzo[d]thiazol-2-yl)-4,5,6,7-tetrahydrothieno[2,3-c]pyridin-2-yl)-3-(isopropylamino)cyclobutane-1-carboxamide] | – |
| 16.8 nM | – | CC(C)NC1CCC(C(=O)Nc2sc3c(c2-c2nc4ccc(-c5ccc(N6CCNCC6)nc5)cc4s2)CCNC3)C1 (stereo not drawn) [Compound 060, 3-(isopropylamino)-N-(3-(6-(6-(piperazin-1-yl)pyridin-3-yl)benzo[d]thiazol-2-yl)-4,5,6,7-tetrahydrothieno [2,3-c]pyridin-2-yl) cyclopentane-1-carboxamide] | 1100 nM |
| – | – | CC(C)NCCCNc1sc2c(c1-c1nc3ccc(-c4ccc(N5CCNCC5)nc4)cc3s1)CCNC2 [Compound 082, N^1-isopropyl-N^3-(3-(6-(6-(piperazin-1-yl)pyridin-3-yl)benzo[d]thiazol-2-yl)-4,5,6,7-tetrahydrothieno[2,3-c]pyridin-2-yl) propane-1,3-diamine] | 4510 nM |
| – | – | CN(C)CCNC(=O)CNc1sc2c(c1-c1nc3ccccc3s1)CCNC2 [Compound 086, 2-((3-(benzo[d]thiazol-2-yl)-4,5,6,7-tetrahydrothieno [2,3-c]pyridin-2-yl)amino)-N-(2-(dimethylamino)ethyl)acetamide] | 7560 nM |
| – | < 150 nM | COCCNC1CC(C(=O)Nc2sc3c(c2-c2nc4ccc(C5=CCNCC5)cc4s2)CCNC3)C1 (stereo not drawn) [Compound 119, 3-((2-methoxyethyl)amino)-N-(3-(6-(1,2,3,6-tetrahydropyridin-4-yl)benzo [d]thiazol-2-yl)-4,5,6,7-tetrahydrothieno[2,3-c]pyridin-2-yl)cyclobutane-1-carboxamide] | – |
| – | < 150 nM | Cc1cn(-c2ccc3sc(-c4c(NC(=O)C5CC(NC(C)C)C5)sc5c4CCNC5)nc3c2)cn1 (stereo not drawn) [Compound 121, 3-(isopropylamino)-N-(3-(5-(4-methyl-1H-imidazol-1-yl)benzo[d]thiazol-2-yl)-4,5,6,7-tetrahydrothieno [2,3-c]pyridin-2-yl) cyclobutane-1-carboxamide] | 725 nM |
| – | – | CC(=O)N1CCc2c(sc(NC(=O)C3CC(NC(C)C)C3)c2-c2nc3ccc(-c4ccc(N5CCNCC5)nc4)cc3s2)C1 (stereo not drawn) [Compound 122, N-(6-acetyl-3-(6-(6-(piperazin-1-yl)pyridin-3-yl)benzo[d]thiazol-2-yl)-4,5,6,7-tetrahydrothieno[2,3-c]pyridin-2-yl)-3-(isopropylamino)cyclobutane-1-carboxamide] | 1040 nM |
| – | – | CC(C)NC1CCC(C(=O)Nc2sc3c(c2-c2nc4ccc(Br)cc4s2)CCNC3)CC1 (stereo not drawn) [Compound 123, N-(3-(6-bromobenzo[d]thiazol-2-yl)-4,5,6,7-tetrahydrothieno[2,3-c]pyridin-2-yl)-4-(isopropylamino) cyclohexane-1-carboxamide] | 937 nM |
| 7.37 nM | – | CC(C)NC1CCC(C(=O)Nc2sc3c(c2-c2nc4ccc(C5=CCNCC5)cc4s2)CCNC3)CC1 (stereo not drawn) [Compound 124, 4-(isopropylamino)-N-(3-(6-(1,2,3,6-tetrahydropyridin-4-yl)benzo[d]thiazol-2-yl)-4,5,6,7-tetrahydrothieno [2,3-c]pyridin-2-yl) cyclohexane-1-carboxamide] | 3260 nM |
| – | – | CN1CCN(c2sc3c(c2-c2nc4ccc(-c5ccc(N6CCNCC6)nc5)cc4s2)CCNC3)CC1 [Compound 126, 2-(2-(4-methylpiperazin-1-yl)-4,5,6,7-tetrahydrothieno [2,3-c]pyridin-3-yl)-6-(6-(piperazin-1-yl)pyridin-3-yl)benzo[d]thiazole] | 1180 nM |
| 0.66 nM | – | CC(C)NC1CC(C(=O)N(C)c2sc3c(c2-c2nc4ccc(-c5ccc(N6CCNCC6)nc5)cc4s2)CCNC3)C1 (stereo not drawn) [Compound 134, 3-(isopropylamino)-N-methyl-N-(3-(6-(6-(piperazin-1-yl)pyridin-3-yl)benzo [d]thiazol-2-yl)-4,5,6,7-tetrahydrothieno[2,3-c]pyridin-2-yl)cyclobutane-1-carboxamide] | – |
| – | – | CC(=O)NC1CC(C(=O)Nc2sc3c(c2-c2nc4ccc(C5=CCN(C(C)=O)CC5)cc4s2)CCNC3)C1 (stereo not drawn) [Compound 141] | 1460 nM |
| 98.3 nM | – | CC(C)NCCC(=O)Nc1sc2c(c1-c1nc(-c3ccccc3)cs1)CCNC2 [Compound b, reference compound] | 242 nM |

| Structure (SMILES) | IC50 [1] | IC50 [3] | IC50 [2] |
| --- | --- | --- | --- |
| CNCCNC(=O)C(=O)Nc1sc2c(c1-c1nc3ccc(C4=CCNCC4)cc3s1)CCNC2 [Compound 125, N^1-(2-(methylamino)ethyl)-N^2-(3-(6-(1,2,3,6-tetrahydropyridin-4-yl)benzo [d]thiazol-2-yl)-4,5,6,7-tetrahydrothieno[2,3-c]pyridin-2-yl)oxalamide] | 65.2 nM | – | 11100 nM |
